Assay results as given in paper PMC11320730, “5-Methoxy-2-aminoindane Reverses Diet-Induced Obesity and Improves Metabolic Parameters in Mice: A Potential New Class of Antiobesity Therapeutics” (ACS Pharmacology & Translational Science, 2024).

Assays:
C57Bl/6 mice [1] = assay: Sucrose preference test; type: in vivo; conditions: 40 mg/kg, single dose
Protocol: Thirteen-week-old male C57BL/6 mice, maintained on a STD and housed individually, were habituated to two water bottles in their home cage for 48 h prior to the test. Baseline intake was measured by weighing the bottles. On the test day (day 1), 2 h before the onset of the dark phase, fresh water and a 1.5% sucrose solution were added to the bottles and mice were subsequently treated orally with MEAI (40 mg/kg, N = 8) or sterile water (N = 8). The mice were allowed to freely drink from either bottle for 24 h, after which the bottles were weighed to measure consumption. The study was repeated for an additional day (day 2), with the bottles switched in position (in the cage) to account for side preference. The sucrose and water intake over the 2 days were averaged, and the sucrose preference index was calculated as the average consumed sucrose solution divided by the average volume of total consumed liquid (average water plus average sucrose solution).

C57Bl/6 mice [2] = assay: Acute effect of MEAI on food and water intake and metabolic parameters (Promethion); type: in vivo; conditions: lean male mice, vs vehicle
Protocol: Male 6-week-old C57Bl/6 mice (Harlan, Israel) were maintained in standard conditions under a 12 h light/dark cycle and fed ad libitum. A total of 32 animals were divided into four experimental groups (N = 8 mice per group) receiving single doses of 40, 60, or 100 mg/kg of MEAI or vehicle (sterile water), which was administered via oral gavage 2 h prior to the dark phase. The animals were monitored for 48 h postdose for drug tolerability, food and water intakes, and activity and metabolic parameters. At the end of the experiment, the animals were euthanized, and tissues (brain, liver, fat, and kidney) and blood were collected and stored in a frozen state for future analyses.
The metabolic profiles and food and water intakes of the mice were assessed using the Promethion High-Definition Behavioral Phenotyping System (Sable Instruments, Inc., Las Vegas, Nevada, USA). MetaScreen software version 2.2.18.0 was used for data acquisition and instrument control. Raw data were processed using ExpeData version 1.8.4 with an analysis script detailing all aspects of the data transformation. Mice with free access to food and water, housed at temperatures of (22–23 °C), were subjected to a standard 12 h light/12 h dark cycle, which consisted of a 48 h acclimation period followed by 24 h of sampling after dosing. Respiratory gases were measured using the GA-3 gas analyzer (Sable Systems, Inc., Las Vegas, Nevada, USA) employing a pull-mode negative-pressure system. Airflow was measured and controlled by an FR-8 instrument (Sable Systems, Inc., Las Vegas, Nevada, USA) at a flow rate of 2000 mL/min. Water vapor was continuously measured, and its dilution effect on O2 and CO2 was mathematically compensated. Respiratory exchange rate (RER) was calculated as the ratio of CO2 produced (VCO2) to O2 consumed (VO2) using eq 1): [drawing 1] 1
Total energy expenditure (TEE) was calculated using VO2 and RER, according to eq 2: [drawing 2] 2
Fat oxidation (FO) and carbohydrate oxidation (CHO) were calculated using VO2 and VCO2 based on eqs 3 and 4, respectively: [drawing 3] 3 [drawing 4] 4
Energy balance and energy flux were derived from eqs 5 and 6: [drawing 5] 5 [drawing 6] 6

5-HT1A receptor = target: 5-HT1A receptor; parameters: method as in PMID 30904940; conditions: cited from earlier work
5-HT2B receptor [3] = target: 5-HT2B receptor; parameters: method as in PMID 30904940; conditions: cited from earlier work
[4] = tested on: dopamine transporter (DAT); parameters: method as in PMID 30904940; conditions: cited from earlier work
5-HT2B receptor [5] = tested on: 5-HT2B receptor; parameters: method as in PMID 29458138; conditions: cited from earlier work

COc1ccc2c(c1)CC(N)C2.Cl (stereo not shown) [MEAI, 2,3-Dihydro-5-methoxy-1H-inden-2-amine hydrochloride]
preference for sucrose solution (C57Bl/6 mice [1]; 1.5% sucrose, most evident during initial 24 h, vs vehicle): significantly reduced | water intake levels (C57Bl/6 mice [1]; sucrose preference test): without any accompanying decrease | hourly average energy expenditure (TEE/h) (C57Bl/6 mice [2]; single oral dose 40, 60 or 100 mg/kg, across 24 h): significant dose-dependent increase | feeding patterns (food intake) (C57Bl/6 mice [2]; single oral dose 40, 60 or 100 mg/kg, dark and light phases): did not reach statistical significance | water consumption (C57Bl/6 mice [2]; single oral dose 40, 60 or 100 mg/kg): no notable changes | respiratory exchange ratio (RER) (C57Bl/6 mice [2]; single oral dose 60 and 100 mg/kg, light phase): markedly increased | carbohydrate oxidation (CHO) rate (C57Bl/6 mice [2]; single oral dose, higher doses): elevations | fat oxidation (FO) rate (C57Bl/6 mice [2]; single oral dose, higher doses): elevations | total daily TEE (C57Bl/6 mice [2]; single oral dose, particularly at 60 mg/kg): significant elevation | carbon dioxide production (VCO2) (C57Bl/6 mice [2]; single oral dose): increases | energy balance (C57Bl/6 mice [2]; single oral dose): did not lead to immediate changes | oxygen consumption (VO2) (C57Bl/6 mice [2]; single oral dose): increases | Ki (5-HT1A receptor): 2.5 µM | Ki (5-HT2B receptor [3]): 4.79 µM | interaction with transporter [4]: interacts | binding inhibition (5-HT2B receptor [5]): modest binding inhibition
